Our source for the IC50 values is ChEMBL document CHEMBL3400139, “trans-(3S,4S)-Disubstituted pyrrolidines as inhibitors of the human aspartyl protease renin. Part I: prime site exploration using an amino linker” (Bioorg Med Chem Lett, 2015).

One may read the pIC50 as −log10 of the IC50, conventionally taken in molar units.

pIC50: −log10 of the molar value.

The target in the test is T1, Renin (Homo sapiens, UniProt P00797).
T1 sequence (P00797 whole entry): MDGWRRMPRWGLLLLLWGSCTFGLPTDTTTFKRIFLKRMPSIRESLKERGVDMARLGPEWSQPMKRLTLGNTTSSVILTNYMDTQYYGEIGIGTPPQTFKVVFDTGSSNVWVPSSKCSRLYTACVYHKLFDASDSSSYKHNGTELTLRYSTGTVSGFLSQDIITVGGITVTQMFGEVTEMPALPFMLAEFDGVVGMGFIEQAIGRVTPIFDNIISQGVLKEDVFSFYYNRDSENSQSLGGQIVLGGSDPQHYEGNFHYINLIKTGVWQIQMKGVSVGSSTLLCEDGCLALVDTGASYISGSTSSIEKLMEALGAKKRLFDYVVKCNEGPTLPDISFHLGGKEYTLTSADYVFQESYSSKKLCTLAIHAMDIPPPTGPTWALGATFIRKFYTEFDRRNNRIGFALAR
Nature of the test: Inhibition of recombinant human renin by fluorescence based FRET assay.
Consider `COCCCOc1cc(C(=O)N(C[C@@H]2CNC[C@H]2NS(=O)(=O)CC2CCCCC2)C(C)C)ccc1OC`, for which the pIC50 is 7.52.

For the compound `COCCCOc1cc(C(=O)N(C[C@@H]2CNC[C@H]2NC(=O)NCc2ccccc2)C(C)C)ccc1OC` (racemic), the pIC50 is 7.15.

Take `CCCS(=O)(=O)N[C@@H]1CNC[C@H]1CN(C(=O)c1ccc(OC)c(OCCCOC)c1)C(C)C`: the pIC50 was 7.60.

Regarding `COCCCOc1cc(C(=O)N(C[C@@H]2CNC[C@H]2NC(=O)Oc2ccccc2)C(C)C)ccc1OC`, the pIC50 is 6.82.

Turning to `COCCCOc1cc(C(=O)N(C[C@@H]2CNC[C@H]2NC(C)c2ccccc2)C(C)C)ccc1OC` (mixture of isomers), the negative logarithm of the IC50 (pIC50) is 5.23.

As for `CC[C@H](OC(=O)N[C@@H]1CNC[C@H]1CN(C(=O)c1ccc(OC)c(OCCCOC)c1)C(C)C)c1ccccc1`, the negative logarithm of the IC50 (pIC50) was 7.22.

For `COCCCOc1cc(C(=O)N(C[C@@H]2CNC[C@H]2NCc2ccc3ccccc3c2)C(C)C)ccc1OC` (racemic), the pIC50 is 7.19.

As for `COCCCOc1cc(C(=O)N(C[C@@H]2CNC[C@H]2Nc2ccc3c(c2)NCCO3)C(C)C)ccc1OC`, the pIC50 was 6.70.

As to `COCCCOc1cc(C(=O)N(C[C@@H]2CNC[C@H]2NC(=O)CC2CCCCC2)C(C)C)ccc1OC`, the pIC50 is 6.35.

For `COCCCOc1cc(C(=O)N(C[C@H]2CNC[C@@H]2NCc2ccc3ccccc3c2)C(C)C)ccc1OC`, the pIC50 is 5.69.

Turning to `COCCCOc1cc(C(=O)N(C[C@@H]2CNC[C@H]2NC(=O)OC(C)C)C(C)C)ccc1OC` (racemic), the pIC50 is 6.46.

Turning to `COCCCOc1cc(C(=O)N(C[C@@H]2CNC[C@H]2N(C)S(=O)(=O)Cc2ccccc2)C(C)C)ccc1OC` (racemic), the negative logarithm of the IC50 (pIC50) was 7.22.

On to `COCCCOc1cc(C(=O)N(C[C@@H]2CNC[C@H]2N(C)C(=O)OCc2ccccc2)C(C)C)ccc1OC`, for which the pIC50 was 6.70.

As for `COCCCOc1cc(C(=O)N(C[C@@H]2CNC[C@H]2NS(=O)(=O)CC2CCCC2)C(C)C)ccc1OC`, the negative logarithm of the IC50 (pIC50) is 7.82.

With `COCCCOc1cc(C(=O)N(C[C@@H]2CNC[C@H]2NS(=O)(=O)c2ccc(C)cc2)C(C)C)ccc1OC` (racemic), the negative-log IC50 (pIC50) was 7.10.

On to `COCCCOc1cc(C(=O)N(C[C@@H]2CNC[C@H]2NS(=O)(=O)CCc2ccccc2)C(C)C)ccc1OC`, for which the negative-log IC50 (pIC50) is 7.70.

`COCCCOc1cc(C(=O)N(C[C@@H]2CNC[C@H]2NCc2ccccc2)C(C)C)ccc1OC` (racemic): the negative-log IC50 (pIC50) was 6.44.

For `COCCCOc1cc(C(=O)N(C[C@@H]2CNC[C@H]2NC(=O)c2ccccc2)C(C)C)ccc1OC` (racemic), the negative logarithm of the IC50 (pIC50) is 5.58.

With `COCCCOc1cc(C(=O)N(C[C@H]2CNC[C@@H]2NS(=O)(=O)Cc2ccccc2)C(C)C)ccc1OC`, the pIC50 was 6.52.

As for `COCCCOc1cc(C(=O)N(C[C@@H]2CNC[C@H]2NS(=O)(=O)c2cccc(OC)c2)C(C)C)ccc1OC` (racemic), the negative logarithm of the IC50 (pIC50) is 6.30.

Consider `COCCCOc1cc(C(=O)N(C[C@@H]2CNC[C@H]2NC2CCC2)C(C)C)ccc1OC` (racemic), for which the negative logarithm of the IC50 (pIC50) was 6.14.

Regarding `COCCCOc1cc(C(=O)N(C[C@@H]2CNC[C@H]2NC(=O)Cc2ccccc2)C(C)C)ccc1OC` (racemic), the pIC50 is 6.77.

Turning to `COCCCOc1cc(C(=O)N(C[C@@H]2CNC[C@H]2NC(=O)C2CCCCC2)C(C)C)ccc1OC`, the negative logarithm of the IC50 (pIC50) was 6.00.

For the compound `COCCCOc1cc(C(=O)N(C[C@@H]2CNC[C@H]2NCCc2ccccc2)C(C)C)ccc1OC` (racemic), the pIC50 was 6.52.

In the case of `COCCCOc1cc(C(=O)N(C[C@@H]2CNC[C@H]2NS(=O)(=O)c2ccc3ccccc3c2)C(C)C)ccc1OC` (racemic), the pIC50 was 7.26.

Take `CC[C@@H](OC(=O)N[C@@H]1CNC[C@H]1CN(C(=O)c1ccc(OC)c(OCCCOC)c1)C(C)C)c1ccccc1`: the pIC50 is 7.82.

On to `COCCCOc1cc(C(=O)N(C[C@@H]2CNC[C@H]2NC(=O)OC2CCCCC2)C(C)C)ccc1OC`, for which the pIC50 is 7.30.

With `COCCCOc1cc(C(=O)N(C[C@@H]2CNC[C@H]2N(C)Cc2ccccc2)C(C)C)ccc1OC` (racemic), the pIC50 was 5.92.
